Experimental data reported in US20080227763A1, “Topical hormonal composition with systemic action” (LABORATOIRE THERAMEX, priority 1998, published 2008).
Like-named read-outs stand apart in the source and are kept apart here.

Columns and labels:
[1] = Solubility of nomegestrol acetate in solvent mixtures; assay type: physicochemical
[2] = Clinical example No. 1: plasma nomegestrol acetate after gel applied daily to both breasts; assay type: in vivo, women
Method: In these examples, clinical trials were carried out on women, with the gel containing 0.11% of nomegestrol acetate, whose formulation is given in Table 1 of example I.
Twenty-four volunteers, women in good health and in the period of ovarian activity, with average age of 23.5 years, were treated on 15 consecutive days with 4 mg of nomegestrol acetate in a gel applied every day to both breasts.
Repeated blood samples were taken in the hours following the first and last administration, on 9 occasions (6 times before application of the gel and 3 times 3 hours afterwards), between the 2nd and the 14th day of treatment. The plasma of these samples was analysed for nomegestrol acetate by liquid chromatography combined with mass spectrometry.

breast pain = experiment: Clinical example No. 3: breast pain in premenopausal women treated with gel on both breasts; assay type: in vivo; conditions: 55 women, 4 mg/day as gel on both breasts
Method: In these examples, clinical trials were carried out on women, with the gel containing 0.11% of nomegestrol acetate, whose formulation is given in Table 1 of example I. […], who had been suffering from breast pains for more than 3 months and for at least 7 days per cycle, were treated for an average time of 130 days with 4 mg of nomegestrol acetate applied each day, on the last 15 days of the menstrual cycle, in the form of a gel on both breasts. Efficacy was assessed after 3 months and at the end of treatment using a visual analogue scale for quantifying breast pain.

[3] = Solubility of nomegestrol acetate in solvent mixtures; assay type: physicochemical; conditions: ethanol/water/propyleneglycol ternary mixture, aqueous with cosolvent or surfactant or cyclodextrin, read-out: Solubilities
Method: The effect of a ternary mixture of solvents, ethanol/water (45:55)/propyleneglycol on the solubility of nomegestrol acetate was determined.
We also examined the possibility of lowering the proportion of alcohol in the solvent, by means of this ternary mixture, while maintaining similar solubility; for this we choose the influence of propyleneglycol on solubility in ethanol/water systems (40:60 and 30:70).

[4] = after the last administration (15 consecutive days)
[5] = first day of treatment, 4 mg nomegestrol acetate in 0.11% gel on both breasts

CC(=O)O[C@]1(C(C)=O)CC[C@H]2[C@@H]3C=C(C)C4=CC(=O)CC[C@@H]4[C@H]3CC[C@@]21C [nomegestrol acetate]
solubility ([1]; 95° ethanol/water binary mixture, aqueous with cosolvent or surfactant or cyclodextrin, 95° ethanol/water binary mixture, 10% 95° ethanol, read-out: Solubility of nomegestrol acetate): 70 µg/mL | solubility ([1]; 95° ethanol/water binary mixture, aqueous with cosolvent or surfactant or cyclodextrin, 95° ethanol/water binary mixture, 20% 95° ethanol, read-out: Solubility of nomegestrol acetate): 113 µg/mL | solubility ([1]; 95° ethanol/water binary mixture, aqueous with cosolvent or surfactant or cyclodextrin, 95° ethanol/water binary mixture, 30% 95° ethanol, read-out: Solubility of nomegestrol acetate): 683 µg/mL | solubility ([1]; 95° ethanol/water binary mixture, aqueous with cosolvent or surfactant or cyclodextrin, 95° ethanol/water binary mixture, 40% 95° ethanol, read-out: Solubility of nomegestrol acetate): 2820 µg/mL | solubility ([1]; 95° ethanol/water binary mixture, aqueous with cosolvent or surfactant or cyclodextrin, 95° ethanol/water binary mixture, 50% 95° ethanol, read-out: Solubility of nomegestrol acetate): 7330 µg/mL | solubility ([1]; 95° ethanol/water binary mixture, aqueous with cosolvent or surfactant or cyclodextrin, 95° ethanol/water binary mixture, 60% 95° ethanol, read-out: Solubility of nomegestrol acetate): 17800 µg/mL | solubility ([1]; 95° ethanol/water binary mixture, aqueous with cosolvent or surfactant or cyclodextrin, 95° ethanol/water binary mixture, 70% 95° ethanol, read-out: Solubility of nomegestrol acetate): 24800 µg/mL | solubility ([1]; 95° ethanol/water binary mixture, aqueous with cosolvent or surfactant or cyclodextrin, 95° ethanol/water binary mixture, 80% 95° ethanol, read-out: Solubility of nomegestrol acetate): 29500 µg/mL | solubility ([1]; 95° ethanol/water binary mixture, aqueous with cosolvent or surfactant or cyclodextrin, 95° ethanol/water binary mixture, 90% 95° ethanol, read-out: Solubility of nomegestrol acetate): 26600 µg/mL | solubility ([1]; 95° ethanol/water binary mixture, organic solvent or mixture, 95° ethanol/water binary mixture, 100% 95° ethanol, read-out: Solubility of nomegestrol acetate): 32800 µg/mL | solubility ([1]; 95° ethanol/water binary mixture, water, 95° ethanol/water binary mixture, 0% 95° ethanol, read-out: Solubility of nomegestrol acetate): 56 µg/mL | solubility ([1]; aqueous-alcoholic solvent mixture, aqueous with cosolvent or surfactant or cyclodextrin, aqueous-alcoholic mixture, 0% propyleneglycol, 3% Solketal, read-out: Solubility of nomegestrol acetate): 6700 µg/mL | solubility ([1]; aqueous-alcoholic solvent mixture, aqueous with cosolvent or surfactant or cyclodextrin, aqueous-alcoholic mixture, 0% propyleneglycol, 3% Vitamin E TPGS, read-out: Solubility of nomegestrol acetate): 7650 µg/mL | solubility ([1]; aqueous-alcoholic solvent mixture, aqueous with cosolvent or surfactant or cyclodextrin, aqueous-alcoholic mixture, 0% propyleneglycol, 8% Solketal, read-out: Solubility of nomegestrol acetate): 8600 µg/mL | solubility ([1]; aqueous-alcoholic solvent mixture, aqueous with cosolvent or surfactant or cyclodextrin, aqueous-alcoholic mixture, 0% propyleneglycol, 8% Transcutol®, read-out: Solubility of nomegestrol acetate): 10700 µg/mL | solubility ([1]; aqueous-alcoholic solvent mixture, aqueous with cosolvent or surfactant or cyclodextrin, aqueous-alcoholic mixture, 0% propyleneglycol, 8% Vitamin E TPGS, read-out: Solubility of nomegestrol acetate): 11100 µg/mL | solubility ([1]; aqueous-alcoholic solvent mixture, aqueous with cosolvent or surfactant or cyclodextrin, aqueous-alcoholic mixture, 3% propyleneglycol, 8% Transcutol®, read-out: Solubility of nomegestrol acetate): 10600 µg/mL | solubility ([1]; aqueous-alcoholic solvent mixture, aqueous with cosolvent or surfactant or cyclodextrin, aqueous-alcoholic mixture, 8% propyleneglycol, 0% Solketal, read-out: Solubility of nomegestrol acetate): 7700 µg/mL | solubility ([1]; aqueous-alcoholic solvent mixture, aqueous with cosolvent or surfactant or cyclodextrin, aqueous-alcoholic mixture, 8% propyleneglycol, 0% Transcutol®, read-out: Solubility of nomegestrol acetate): 7700 µg/mL | solubility ([1]; aqueous-alcoholic solvent mixture, aqueous with cosolvent or surfactant or cyclodextrin, aqueous-alcoholic mixture, 8% propyleneglycol, 0% Vitamin E TPGS, read-out: Solubility of nomegestrol acetate): 7700 µg/mL | solubility ([1]; aqueous-alcoholic solvent mixture, aqueous with cosolvent or surfactant or cyclodextrin, aqueous-alcoholic mixture, 8% propyleneglycol, 3% Solketal, read-out: Solubility of nomegestrol acetate): 10700 µg/mL | solubility ([1]; aqueous-alcoholic solvent mixture, aqueous with cosolvent or surfactant or cyclodextrin, aqueous-alcoholic mixture, 8% propyleneglycol, 3% Transcutol®, read-out: Solubility of nomegestrol acetate): 7950 µg/mL | solubility ([1]; aqueous-alcoholic solvent mixture, aqueous with cosolvent or surfactant or cyclodextrin, aqueous-alcoholic mixture, 8% propyleneglycol, 3% Vitamin E TPGS, read-out: Solubility of nomegestrol acetate): 12500 µg/mL | solubility ([1]; ethanol/water/Labrasol solvent mixture with propyleneglycol, aqueous with cosolvent or surfactant or cyclodextrin, System Ethanol 95° 45%/Water 50%/Labrasol® 5%, 10% propyleneglycol, read-out: Solubility of l'nomegestrol acetate): 9500 µg/mL | solubility ([1]; ethanol/water/Labrasol solvent mixture with propyleneglycol, aqueous with cosolvent or surfactant or cyclodextrin, System Ethanol 95° 45%/Water 50%/Labrasol® 5%, 15% propyleneglycol, read-out: Solubility of l'nomegestrol acetate): 10200 µg/mL | solubility ([1]; ethanol/water/Labrasol solvent mixture, aqueous with cosolvent or surfactant or cyclodextrin, System Ethanol 95° 45%/Water 50%/Labrasol® 5%, 0% propyleneglycol, read-out: Solubility of l'nomegestrol acetate): 9400 µg/mL | solubility ([1]; ethanol/water/propyleneglycol solvent mixture, aqueous with cosolvent or surfactant or cyclodextrin, System III (Ethanol 95° 45%/Demineralized water 55%), 2% propyleneglycol, read-out: Solubilities): 5100 µg/mL | solubility ([1]; ethanol/water/propyleneglycol ternary mixture, aqueous with cosolvent or surfactant or cyclodextrin, System I (Ethanol 95° 30%/Demineralized water 70%), 0% propyleneglycol, read-out: Solubilities): 600 µg/mL | solubility ([1]; ethanol/water/propyleneglycol ternary mixture, aqueous with cosolvent or surfactant or cyclodextrin, System I (Ethanol 95° 30%/Demineralized water 70%), 4% propyleneglycol, read-out: Solubilities): 500 µg/mL | solubility ([1]; ethanol/water/propyleneglycol ternary mixture, aqueous with cosolvent or surfactant or cyclodextrin, System I (Ethanol 95° 30%/Demineralized water 70%), 6% propyleneglycol, read-out: Solubilities): 700 µg/mL | solubility ([1]; ethanol/water/propyleneglycol ternary mixture, aqueous with cosolvent or surfactant or cyclodextrin, System I (Ethanol 95° 30%/Demineralized water 70%), 8% propyleneglycol, read-out: Solubilities): 1000 µg/mL | solubility ([1]; ethanol/water/propyleneglycol ternary mixture, aqueous with cosolvent or surfactant or cyclodextrin, System I (Ethanol 95° 30%/Demineralized water 70%), 12% propyleneglycol, read-out: Solubilities): 1100 µg/mL | solubility ([1]; ethanol/water/propyleneglycol ternary mixture, aqueous with cosolvent or surfactant or cyclodextrin, System I (Ethanol 95° 30%/Demineralized water 70%), 20% propyleneglycol, read-out: Solubilities): 1500 µg/mL | solubility ([1]; ethanol/water/propyleneglycol ternary mixture, aqueous with cosolvent or surfactant or cyclodextrin, System II (Ethanol 95° 40%/Demineralized water 60%), 0% propyleneglycol, read-out: Solubilities): 2900 µg/mL | solubility ([1]; ethanol/water/propyleneglycol ternary mixture, aqueous with cosolvent or surfactant or cyclodextrin, System II (Ethanol 95° 40%/Demineralized water 60%), 4% propyleneglycol, read-out: Solubilities): 2600 µg/mL | solubility ([1]; ethanol/water/propyleneglycol ternary mixture, aqueous with cosolvent or surfactant or cyclodextrin, System II (Ethanol 95° 40%/Demineralized water 60%), 8% propyleneglycol, read-out: Solubilities): 3200 µg/mL | solubility ([1]; ethanol/water/propyleneglycol ternary mixture, aqueous with cosolvent or surfactant or cyclodextrin, System II (Ethanol 95° 40%/Demineralized water 60%), 20% propyleneglycol, read-out: Solubilities): 3900 µg/mL | solubility ([1]; ethanol/water/propyleneglycol ternary mixture, aqueous with cosolvent or surfactant or cyclodextrin, System III (Ethanol 95° 45%/Demineralized water 55%), 0% propyleneglycol, read-out: Solubilities): 5100 µg/mL | solubility ([1]; ethanol/water/propyleneglycol ternary mixture, aqueous with cosolvent or surfactant or cyclodextrin, System III (Ethanol 95° 45%/Demineralized water 55%), 4% propyleneglycol, read-out: Solubilities): 5100 µg/mL | solubility ([1]; ethanol/water/propyleneglycol ternary mixture, aqueous with cosolvent or surfactant or cyclodextrin, System III (Ethanol 95° 45%/Demineralized water 55%), 6% propyleneglycol, read-out: Solubilities): 5100 µg/mL | solubility ([1]; ethanol/water/propyleneglycol ternary mixture, aqueous with cosolvent or surfactant or cyclodextrin, System III (Ethanol 95° 45%/Demineralized water 55%), 20% propyleneglycol, read-out: Solubilities): 7900 µg/mL | area under the curve from 0 to 48 hours [2, 4]: 18.43±2.091 ng/ml per h | maximum concentration (plasma) [2, 4]: 0.65 ± 0.073 ng/mL | state of equilibrium obtained ([2]; daily application): after the 3rd day of treatment | concentration at 72 h ([2]; female, human, plasma, topical, 4 mg, 72 hours after the last application, read-out: plasma level): 0.19 ± 0.027 ng/mL | area under the curve from 0 to 48 hours [2, 5]: 6.08±0.775 ng/ml per h | maximum concentration (plasma) [2, 5]: 0.25 ± 0.027 ng/mL | nomegestrol acetate in the blood (m±sd) (breast pain): 0.44 ± 0.30 ng/mL | solubility ([3]; System I (Ethanol 95° 30%/Demineralized water 70%), 2% propyleneglycol): 600 µg/mL | solubility ([3]; System II (Ethanol 95° 40%/Demineralized water 60%), 2% propyleneglycol): 2600 µg/mL | solubility ([3]; System II (Ethanol 95° 40%/Demineralized water 60%), 6% propyleneglycol): 3000 µg/mL | solubility ([3]; System II (Ethanol 95° 40%/Demineralized water 60%), 12% propyleneglycol): 3400 µg/mL | solubility ([3]; System III (Ethanol 95° 45%/Demineralized water 55%), 8% propyleneglycol): 7700 µg/mL | solubility ([3]; System III (Ethanol 95° 45%/Demineralized water 55%), 12% propyleneglycol): 7700 µg/mL
